Measurements from patent publication US20260159486A1, “BENZO[H]QUINAZOLINE-4-AMINE DERIVATIVES FOR THE TREATMENT OF CANCER” (Redona Therapeutics, Inc., priority 2021, published 2026).

Assays:
[1] = molecular target: T1, recombinant human CLK3 (Homo sapiens, UniProt P49761); assay: CLK3 kinase assay (LANCE Ultra); type: biochemical; conditions: CLK3 0.5 nM, ATP 300 μM, 3 hours at 30° C.
T1 construct: purchased Thermo Fisher Scientific PV3826
Method in brief: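 Recombinant human CLK3 (0.5 nM) with ULight-CREBtide (50 nM) and 300 μM ATP, 3 h at 30 °C in kinase buffer; EDTA stop, then Eu-anti-phospho-CREB antibody (2 nM, 1 h RT), TR-FRET read at 665/620 nm. Inhibition normalized to DMSO and no-ATP wells; IC50 from 4-parameter fit, ten 1:3 concentrations in duplicate.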

[2] = tested on: phospho-SRSF6 in MDA-MB-468 cells; assay: Inhibition of phospho-SRSF6 levels in MDA-MB-468 cells (Western blot); type: cell-based; conditions: Homo sapiens, 2 hours, compared to DMSO control; for inhibition at 0.01 µM: 10 nM, read-out: >50% p-SRSF6 reduction at 10 nM; for inhibition at 0.1 µM: 100 nM, read-out: >50% p-SRSF6 reduction at 100 nM
Protocol: FIG. 1: FIG. 1 provides a representative Western blot showing reduction of phosphorylated-SRSF6 (P—SRSF6) in MDA-MB 468 cells by compounds of the invention. GAPDH was probed for by Western blotting to control for equal protein loading and for normalization of samples. The numbers below the blots show percent inhibition of the P—SRSF6 signal at 100 nM (A) or 10 nM (B) compared to DMSO control.
Assessment of Inhibition of Phospho-SRSF6 Levels in MDA-MB-468 Cells
MDA-MB-468 cells (ATCC, HTB-132) were cultured in DMEM (BioConcept cat. no. 1-26F03) supplemented with 10% FBS (Sigma cat. no. F9665), […] (Sigma cat. no. S8636), 1% Penicillin-Streptomycin (BioConcept cat. no. 4-01FOO-H). When cells reached a density of 70% o in 6-well plates (TPP cat. no. 92006), they were treated either with the test compound vehicle DMSO, or with experimental compounds at a final concentration of either 10 or 100 nM for 2 hours. Thereafter, the culture medium was removed and cells were collected by scraping in Lysis Buffer (20 mM Tris HCl pH7.5, 150 mM NaCl, 1 mM EGTA, 1 mM EDTA, 1% o Triton and 1% o NP-40) containing protease and phosphatase inhibitors (Halt™ Protease&Phosphatase inhibitor cocktail 100× ThermioScientific cat. no. 1861281) and 1 mM PMSF (Fluka cat. no. 93482). Cleared lysates were stored in Eppendorfftubes at −80° C. until use, and protein concentration in lysates was determined using Pierce 660 nm Protein Assay Reagent (ThermioScientific cat. no. 22660). 20 μg proteins were diluted in 4× Laemmli buffer (Biorad cat. no. 161-0747) containing 10% beta-mercaptoethanol, separated by SDS-PAGE using 10% gels, and then transferred to PVDF membranes (Trans Blot Turbo Transfer Pack BioRad cat. no. 1704156) by Trans-Blot® Turbo™ System semidry blotting methodology (BioRad). Primary antibodies were incubated in TBS-0.1% Tween-20 buffer containing 3% BSA Bovine Albumin Fr.V (Millipore cat. no. 81-053-3) overnight at 4° C. The following primary antibodies were used: Mouse anti-phosphoepitope SR proteins clone 1H4 (Millipore cat. no. MABE50) diluted 1:5000, and rabbit anti-GAPDH clone 14C10 (Cell Signaling cat. no. 2118S) to control for equal protein loading, diluted 1:2000. HRP-conjugated secondary antibodies were incubated one hour at room temperature diluted 1:5000 in TBS-0.1% Tween-20 buffer containing […] nonfat-dried bovine milk (Sigma cat. no. M7409). The following secondary antibodies were used: Goat anti-mouse-HRP (Jackson cat. no. 115-035-146) and goat anti-rabbit-HRP (Jackson cat. no. 111-035-144). Membranes were incubated with ECL Prime Western Blot Detection Reagent (Amersham cat. no. RPN2236) to detect specific signals using Fusion SOLO S device (Vilber Lourmat). Pixel intensity of the phopsho-SRSF6 (MW 55 kDa in reference to markers) and GAPDH (MW 37 kDa) signals in the Western blots were determined using Evolution-Capt image analysis software (v17.01, Vilber Lourmat). DMSO control was used to set the phospho-SRSF6 signal at baseline, phospho-SRSF6 signals for each sample were normalized by the respective GAPDH signals and percent intensity of P—SRSF6 signal at 10 and 100 nM compound compared to DMSO control was calculated (see FIG. 1).

[3] = tested on: CAL-51 cells; assay: CAL-51 proliferation assay; type: cell-based; conditions: YO-PRO-1 Iodide readout
Method in brief: (§1)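 Cells seeded at 750 per well, treated next day for 72 h at 37 °C with 0.5% final DMSO. Cell number read by YO-PRO-1 fluorescence after lysis, normalized to DMSO (100%) and time-zero cells (0%). GI50 from 4-parameter logistic fit, maximum constrained to 100%.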

[4] = tested on: MDA-MB-231 cells; assay: MDA-MB-231 proliferation assay; type: cell-based; conditions: YO-PRO-1 Iodide readout
Method in brief: as §1

T1 sequence (P49761 whole entry): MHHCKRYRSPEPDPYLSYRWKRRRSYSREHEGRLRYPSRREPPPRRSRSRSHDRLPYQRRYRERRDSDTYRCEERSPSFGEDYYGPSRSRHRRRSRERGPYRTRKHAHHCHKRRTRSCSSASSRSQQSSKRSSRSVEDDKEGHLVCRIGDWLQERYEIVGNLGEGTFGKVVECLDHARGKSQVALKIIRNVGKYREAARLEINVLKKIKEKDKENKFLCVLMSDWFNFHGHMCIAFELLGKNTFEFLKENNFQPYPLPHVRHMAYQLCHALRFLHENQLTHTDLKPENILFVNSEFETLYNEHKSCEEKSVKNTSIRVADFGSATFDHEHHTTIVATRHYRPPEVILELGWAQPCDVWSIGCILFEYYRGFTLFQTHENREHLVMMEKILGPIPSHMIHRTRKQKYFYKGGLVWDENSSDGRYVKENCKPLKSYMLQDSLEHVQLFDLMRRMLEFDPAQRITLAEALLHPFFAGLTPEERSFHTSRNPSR

SMILES | IC50 [1] [nM] | GI50 ([4]; Homo sapiens, MDA-MB-231, 72 h) [nM] | GI50 ([4]; 72 hours) [nM] | inhibition at 0.01 µM [2] [%] | inhibition at 0.1 µM [2] [%] | GI50 ([3]; Homo sapiens, CAL-51, 72 h) [nM] | GI50 ([3]; 72 hours) [nM]
Nc1ncnc2c1C1(CCCC1)Cc1c-2ccc(O[C@H]2CC[C@H](N)CC2)c1N [Example 37, 8-(trans-4-aminocyclohexoxy)spiro[6H-benzo[h]quinazoline-5,1′-cyclopentane]-4,7-diamine] | 30 to 100 | 100 to 2000 | – | > 50 | > 50 | < 100 | –
CN(CC(C)(C)O)c1c(O[C@H]2CC[C@H](N)CC2)ccc2c1CC(C)(C)c1c(N)ncnc1-2 [Example 40, 1-[[4-amino-8-(trans-4-aminocyclohexoxy)-5,5-dimethyl-6H-benzo[h]quinazolin-7-yl]-methyl-amino]-2-methyl-propan-2-ol] | 30 to 100 | 100 to 2000 | – | > 50 | > 50 | < 100 | –
CN(CC#N)c1c(O[C@H]2CC[C@@H](N)CC2)ccc2c1CC(C)(C)c1c(N)ncnc1-2 [Example 30, 2-[[4-amino-8-(cis-4-aminocyclohexoxy)-5,5-dimethyl-6H-benzo[h]quinazolin-7-yl]-methyl-amino]acetonitrile] | < 30 | < 100 | – | > 50 | > 50 | < 100 | –
CCNc1c(O[C@H]2CC[C@H](N)CC2)ccc2c1CC(C)(C)c1c(N)ncnc1-2 [Example 8, 8-(trans-4-aminocyclohexoxy)-N7-ethyl-5,5-dimethyl-6H-benzo[h]quinazoline-4,7-diamine] | 30 to 100 | 100 to 2000 | – | < 50 | > 50 | < 100 | –
CN(Cc1cccnc1)c1c(O[C@H]2CC[C@H](N)CC2)ccc2c1CC(C)(C)c1c(N)ncnc1-2 [Example 107, 8-(trans-4-aminocyclohexoxy)-N7,5,5-trimethyl-N7-(3-pyridylmethyl)-6H-benzo[h]quinazoline-4,7-diamine] | 101 to 1000 | 100 to 2000 | – | – | – | 100 to 2000 | –
C#CCCN(C)c1c(O[C@H]2CC[C@H](N)CC2)ccc2c1CC(C)(C)c1c(N)ncnc1-2 [Example 54, 8-(trans-4-aminocyclohexoxy)-N7-but-3-ynyl-N7,5,5-trimethyl-6H-benzo[h]quinazoline-4,7-diamine] | < 30 | < 100 | – | – | – | < 100 | –
CC1(C)Cc2c(ccc(O[C@H]3CC[C@H](N)CC3)c2N)-c2ncnc(N)c21 [Example 5, 8-(trans-4-aminocyclohexoxy)-5,5-dimethyl-6H-benzo[h]quinazoline-4,7-diamine] | < 30 | 100 to 2000 | – | – | – | 100 to 2000 | –

The next lines start with results.

IC50 [1] [nM] | GI50 ([4]; Homo sapiens, MDA-MB-231, 72 h) [nM] | GI50 ([4]; 72 hours) [nM] | SMILES | inhibition at 0.01 µM [2] [%] | inhibition at 0.1 µM [2] [%] | GI50 ([3]; Homo sapiens, CAL-51, 72 h) [nM] | GI50 ([3]; 72 hours) [nM]
< 30 | < 100 | – | CN(CCC#N)c1c(O[C@H]2CC[C@H](N)CC2)ccc2c1CC(C)(C)c1c(N)ncnc1-2 [Example 46, 3-[[4-amino-8-(trans-4-aminocyclohexoxy)-5,5-dimethyl-6H-benzo[h]quinazolin-7-yl]-methyl-amino]propanenitrile] | > 50 | > 50 | < 100 | –
< 30 | – | < 100 | CC1(C)Cc2c(ccc(O[C@H]3CC[C@H](N)CC3)c2N2CCC(O)C2)-c2ncnc(N)c21 (single isomer, unassigned) [Example 16, 1-[4-amino-8-(trans-4-aminocyclohexoxy)-5,5-dimethyl-6H-benzo[h]quinazolin-7-yl]pyrrolidin-3-ol] | > 50 | > 50 | – | < 100
< 30 | 100 to 2000 | – | CCN(CC)c1c(O[C@H]2CC[C@H](N)CC2)ccc2c1CC(C)(C)c1c(N)ncnc1-2 [Example 7, 8-(trans-4-aminocyclohexoxy)-N7,N7-diethyl-5,5-dimethyl-6H-benzo[h]quinazoline-4,7-diamine] | > 50 | > 50 | 100 to 2000 | –
< 30 | < 100 | – | CN(CCO)c1c(O[C@H]2CC[C@H](N)CC2)ccc2c1CC(C)(C)c1c(N)ncnc1-2 [Example 12, 2-[[4-amino-8-(trans-4-aminocyclohexoxy)-5,5-dimethyl-6H-benzo[h]quinazolin-7-yl]-methyl-amino]ethanol] | < 50 | > 50 | < 100 | –
< 30 | < 100 | – | CN(C)c1c(O[C@H]2CC[C@H](N)CC2)ccc2c1CC(C)(C)c1c(N)ncnc1-2 [Example 20, 8-(trans-4-aminocyclohexoxy)-N7,N7,5,5-tetramethyl-6H-benzo[h]quinazoline-4,7-diamine] | > 50 | > 50 | < 100 | –
< 30 | < 100 | – | CC1(C)Cc2c(ccc(O[C@H]3CC[C@H](N)CC3)c2-n2cccc2)-c2ncnc(N)c21 [Example 17, 8-(trans-4-aminocyclohexoxy)-5,5-dimethyl-7-pyrrol-1-yl-6H-benzo[h]quinazolin-4-amine] | < 50 | > 50 | < 100 | –
